Key:
human liver proteome = assay: CRAA affinity column target fishing with nanospray-LC/MS/MS, human liver proteome; format: binding; conditions: elution with free CRAA
[1] = target: T1, malate dehydrogenase (MDH) (Sus scrofa, UniProt P00346); assay: 1H NMR STD (saturation transfer difference) binding assay, MDH; set-up: species or system porcine; conditions: CRAA 3 mM
T1 construct: malate dehydrogenase (porcine heart) were from Sigma Aldrich; purchased Sigma Aldrich; host or cells: porcine heart
T1 sequence (P00346 25-338): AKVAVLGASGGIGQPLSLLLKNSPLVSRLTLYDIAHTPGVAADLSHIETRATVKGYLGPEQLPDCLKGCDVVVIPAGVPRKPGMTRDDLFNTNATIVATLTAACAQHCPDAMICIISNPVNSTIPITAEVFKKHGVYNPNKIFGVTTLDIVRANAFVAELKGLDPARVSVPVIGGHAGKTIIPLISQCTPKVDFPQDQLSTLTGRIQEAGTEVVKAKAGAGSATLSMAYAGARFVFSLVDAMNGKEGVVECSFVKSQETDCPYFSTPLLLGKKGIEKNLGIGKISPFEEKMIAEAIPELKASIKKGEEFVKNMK
Experimental: ^1H NMR STD (saturation transfer difference) spectra for CRAA binding to either malate dehydrogenase (MDH) (FIG. 13A) or glutamate dehydrogenase (FIG. 13B) establishes that the CRAA scaffold binds proteins that were identified using the proteomic assay, thereby validing the method for identifying non-target proteins. Glutamate dehydrogenase (bovine liver, GDH) and malate dehydrogenase (porcine heart) were from Sigma Aldrich. Both experiments were performed on a 600 MHz Varian NMR system at 25° C. using the cyclonecyclnoe pulse sequence (a steady state NOE experiment) with 256 scans. On and off resonance irradiations were at 0.5 and −11 ppm respectively, performed for 4 seconds each. […] (See FIG. 13). In both cases, CRAA was present at 3 mM and the binding study was done in a 25 mM phosphate buffer at pH 7.6 with 250 ug GDH or 166 ug MDH in a total volume of 0.6 mLs. The use of STD assays in functional proteomic binding studies has been described (Yao and Sem, FEBS Lett. (2005) 579, 661-666, the content of which is incorporated herein by reference in its entirety). To verify that binding had occurred in the cofactor binding site, competition studies were also performed (not shown). […] To test this hypothesis, the competition was reversed where 3 mM NADP+ STD signal was monitored before and after adding CRAA (1 mM). […]

[2] = target: T2, glutamate dehydrogenase (GDH) (Bos taurus, UniProt P00366); assay: 1H NMR STD (saturation transfer difference) binding assay, GDH; set-up: species or system bovine
T2 construct: Glutamate dehydrogenase (bovine liver, GDH); purchased Sigma Aldrich; host or cells: bovine liver
T2 sequence (P00366 58-558): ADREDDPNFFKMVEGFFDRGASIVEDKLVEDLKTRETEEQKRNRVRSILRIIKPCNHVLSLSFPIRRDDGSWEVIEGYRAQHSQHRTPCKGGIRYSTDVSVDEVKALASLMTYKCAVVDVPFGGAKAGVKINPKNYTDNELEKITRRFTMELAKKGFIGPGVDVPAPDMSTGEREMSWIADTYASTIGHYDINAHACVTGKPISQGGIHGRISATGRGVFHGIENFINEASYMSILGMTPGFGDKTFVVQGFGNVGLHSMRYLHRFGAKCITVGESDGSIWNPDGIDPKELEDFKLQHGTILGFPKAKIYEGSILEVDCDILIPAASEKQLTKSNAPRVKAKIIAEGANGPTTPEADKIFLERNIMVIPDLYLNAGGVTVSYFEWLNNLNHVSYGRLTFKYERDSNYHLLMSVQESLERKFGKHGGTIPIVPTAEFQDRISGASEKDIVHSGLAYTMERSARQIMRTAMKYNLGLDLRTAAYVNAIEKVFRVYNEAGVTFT
Experimental: ^1H NMR STD (saturation transfer difference) spectra for CRAA binding to either malate dehydrogenase (MDH) (FIG. 13A) or glutamate dehydrogenase (FIG. 13B) establishes that the CRAA scaffold binds proteins that were identified using the proteomic assay, thereby validing the method for identifying non-target proteins. Glutamate dehydrogenase (bovine liver, GDH) and malate dehydrogenase (porcine heart) were from Sigma Aldrich. Both experiments were performed on a 600 MHz Varian NMR system at 25° C. using the cyclonecyclnoe pulse sequence (a steady state NOE experiment) with 256 scans. On and off resonance irradiations were at 0.5 and −11 ppm respectively, performed for 4 seconds each. […] (See FIG. 13). In both cases, CRAA was present at 3 mM and the binding study was done in a 25 mM phosphate buffer at pH 7.6 with 250 ug GDH or 166 ug MDH in a total volume of 0.6 mLs. The use of STD assays in functional proteomic binding studies has been described (Yao and Sem, FEBS Lett. (2005) 579, 661-666, the content of which is incorporated herein by reference in its entirety). To verify that binding had occurred in the cofactor binding site, competition studies were also performed (not shown). Addition of 1 mM NADH to the MDH sample caused a decrease in STD signal for CRAA (3 mM) of 35%. The analogous competition with GDH (using NADP+ as competitor) produced no change in STD signal for CRAA—which might be due to higher affinity for […]. To test this hypothesis, the competition was reversed where 3 mM NADP+ STD signal was monitored before and after adding CRAA (1 mM). A decrease in the NADP+ STD signal of 50% was now observed, due to CRAA addition.

ERG potassium channels = conditions: ERG channels expressed by neurons; cited from earlier work
[3] = target: KCNQ1 and minK (KCNE1) potassium channel (Homo sapiens, UniProt P51787); conditions: cardiac delayed rectifier potassium channel of heart muscle cells; read-out: KD for block of the KCNQ1/minK (KCNE1) channel; cited from earlier work
Chain of KCNQ1 and minK (KCNE1) potassium channel (P51787 whole entry): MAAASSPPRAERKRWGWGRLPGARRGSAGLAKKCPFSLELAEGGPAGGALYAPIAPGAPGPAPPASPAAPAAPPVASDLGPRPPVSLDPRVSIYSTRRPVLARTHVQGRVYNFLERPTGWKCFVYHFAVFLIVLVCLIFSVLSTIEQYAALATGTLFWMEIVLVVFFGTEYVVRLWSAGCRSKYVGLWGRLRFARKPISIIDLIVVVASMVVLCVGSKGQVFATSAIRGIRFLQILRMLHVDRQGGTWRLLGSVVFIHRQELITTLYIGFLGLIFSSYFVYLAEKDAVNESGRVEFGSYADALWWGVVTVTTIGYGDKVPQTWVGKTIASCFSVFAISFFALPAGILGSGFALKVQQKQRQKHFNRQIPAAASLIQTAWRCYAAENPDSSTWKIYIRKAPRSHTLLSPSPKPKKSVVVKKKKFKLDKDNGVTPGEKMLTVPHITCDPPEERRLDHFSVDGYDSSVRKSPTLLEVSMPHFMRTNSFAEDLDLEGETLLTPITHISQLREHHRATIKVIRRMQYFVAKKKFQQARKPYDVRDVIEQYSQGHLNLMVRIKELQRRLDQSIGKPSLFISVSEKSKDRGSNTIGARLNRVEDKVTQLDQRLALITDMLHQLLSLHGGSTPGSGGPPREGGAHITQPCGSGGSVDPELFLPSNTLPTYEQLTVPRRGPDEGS

KCNQ potassium channel = conditions: cited from earlier work
[4] = target: T3, DHPR (dihydrodipicolinate reductase) (Escherichia coli, UniProt P04036); assay: Covalent labeling of purified DHPR with NHS-CRAA, with NADH or PDC competitors (SDS-PAGE); format: binding, E. coli
T3 construct: made in house; host or cells: E. coli (pET11a DHPR expression construct)
T3 sequence (P04036 whole entry): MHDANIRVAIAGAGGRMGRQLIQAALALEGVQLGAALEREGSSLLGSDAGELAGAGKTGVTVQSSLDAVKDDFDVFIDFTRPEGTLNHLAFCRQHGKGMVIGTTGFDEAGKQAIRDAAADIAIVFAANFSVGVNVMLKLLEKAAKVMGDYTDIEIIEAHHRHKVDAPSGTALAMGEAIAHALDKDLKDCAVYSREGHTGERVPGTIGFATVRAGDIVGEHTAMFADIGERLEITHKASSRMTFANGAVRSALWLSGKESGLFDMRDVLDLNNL
Experimental: FIG. 8. SDS-PAGE gel of DHPR that has been labeled with NHS-CRAA active ester, but in the presence of increasing concentrations of either NADH or PDC (2,6-pyridine dicarboxylic acid) competitors, Lane 1, protein standard; Lanes 2-6, increasing NADH ([…]); Lanes 7-10, increasing PDC (1.1, 2.3, 4.5, 9.1 mM).
2 (NHS-CRAA) uptake into E. coli cells and labeling of DHPR. To assess whether 1 (CRAA) can make it across bacterial cell walls, and therefore whether 1 is a viable scaffold for anti-infective drug design efforts, experiments were performed to determine if its N-hydroxysuccinimide ester, 2 (NHS-CRAA; FIG. 2), could enter E. coli and label intracellular DHPR (dihydrodipicolinate reductase). DHPR is an anti-infective drug target, and is known to bind the CRAA scaffold (1)^21. The NHS-CRAA active ester (2)^35 was synthesized as in FIG. 2. The NHS (N-hydroxysuccinimide) group reacts with amines, and since it is attached to the linker position of 1 (where the acetic acid chain is attached), it should reside at the interface of the NADH and substrate binding sites^21 (FIG. 1), near lysine 163^36 (see FIG. 7). Indeed, DHPR is labeled with the NHS-CRAA (2) active ester, based on imaging of an SDS-PAGE gel of labeled protein (FIG. 8). Increasing NADH concentration appears to decrease band intensity while PDC has little effect up to 9 mM. […] Next, to explore whether cell wall penetration occurs, uptake of 2 was measured into E. coli that was expressing E. coli DHPR. Since we have recently shown that the CRAA scaffold (1) is bifunctional, in that it is itself weakly fluorescent^33, protein labeling could be monitored by fluorescence imaging of SDS-PAGE gels of crude cell extracts. […] That there is more labeling in cells expressing DHPR is evident based on the more intense color for cells expressing DHPR (FIG. 3c) and on fluorescence images of the cells (FIG. 3d).

[5] = system: E. coli cells overexpressing DHPR; assay: NHS-CRAA in-cell uptake and labeling study
Experimental: E. coli containing the pET11a DHPR expression construct was inoculated into 30 mL LB culture medium, growing overnight at 37° C., 225 rpm. The next day, 10 mL of this culture was added to two flasks (flasks A and B, each containing 800 mL LB medium with 50 μg/mL carbenicillin). The OD600 was monitored until it reached ˜1.0. To flask A was added 0.8 mL of a 0.4 M IPTG stock to start induction^58. Flask B was used as a control without induction. 5 hours later, cells were collected (centrifuged 10 minutes at 4,000 rpm) and washed once with 100 mM PBS buffer, pH 7.4. The Cells were then suspended in 100 mL of pH 7.4 PBS buffer (8 g NaCl, 0.2 g KCl, 1.44 g Na2HPO4, 0.24 g KH2PO4 in 1.0 L) and incubated for 5 minutes. Then, 1 mL NHS-CRAA ester (2) was added to each flask and incubated at room temperature for about 30 minutes (FIG. 3a). […] The gel was fluorescently imaged on a Kodak Image Station, to selectively detect 1 which has λmax for absorbance and emission at 465 nm and 535 nm^37. Cells were fluorescently imaged in PBS buffer after the wash (before lysis) using 495 nm/520 nm excitation/emission filters on the fluorescence microscope. Complementary fluorescence and bright field images may be shifted slightly relative to each other, because of bacterial motion between image captures. […]

[6] = system: potassium currents IA, IK, IAHP, IQ, IL; conditions: IQ and IL currents; cited from earlier work

## O=C(O)CN1C(=O)C(=Cc2ccc(O)c(O)c2)SC1=S [CRAA, 5-[(3,4-dihydroxyphenyl)methylene]-4-oxo-2-thioxo-3-thiazolidineacetic acid]
Human liver proteome
  share of captured proteins that are NAD(P)(H)-binding proteins: > 50%
[1]; 166 ug MDH, 25 mM phosphate pH 7.6, 25° C.
  binding to malate dehydrogenase by STD difference spectrum: binds to protein
[1]; 1 mM NADH competitor, MDH
  decrease in STD signal for CRAA on addition of NADH: 35%
[2]; CRAA 3 mM, 250 ug GDH, 25 mM phosphate pH 7.6, 25° C.
  binding to glutamate dehydrogenase by STD difference spectrum: binds to protein
[2]; GDH, 3 mM NADP+, CRAA 1 mM
  decrease in the NADP+ STD signal due to CRAA addition: 50%
[2]; GDH, NADP+ competitor
  change in STD signal for CRAA with NADP+ as competitor: no change

## O=C1c2ccccc2C(Cc2ccncc2)(Cc2ccncc2)c2ccccc21 [XE991]
ERG potassium channels
  effect on ERG potassium channels: binds to and blocks the activity
[3]
  Kd: 11.1 ± 1.8 µM

## O=C1c2ccccc2C(Cc2ccnc(F)c2)(Cc2ccnc(F)c2)c2ccccc21 [DMP543, 10, 10-Bis[(2-fluoro-4-pyridinyl)methyl]-9(10H)-anthracenone]
KCNQ potassium channel
  effect on the KCNQ potassium channel: activate

## O=C(CN1C(=O)C(=Cc2ccc(O)c(O)c2)SC1=S)ON1C(=O)CCC1=O [NHS-CRAA, 5-[(3,4-dihydroxyphenyl)methylene]-4-oxo-2-thioxo-3-thiazolidineacetic N-hydroxysuccinimide ester]
[4]; PDC up to 9 mM
  effect of PDC on labeling of DHPR: little effect
[4]; imaging of SDS-PAGE gel
  covalent labeling of purified DHPR: labeled
[4]; increasing NADH concentration
  effect of NADH on labeling of DHPR: partially blocked
[5]; intact E. coli cells overexpressing DHPR
  crossing of the bacterial cell wall: can cross the cell wall
[5]; intact cells overexpressing DHPR, about 30 minutes, room temperature, fluorescence imaging of SDS-PAGE gel
  labeling of DHPR within intact E. coli cells: significant labeling

## O=C1N(c2ccccc2)c2ccccc2C1(Cc1ccncc1)Cc1ccncc1 [linopirdine]
[6]
  concentration at which several other potassium currents are blocked: above 10 μM

— patent US20100304998A1, “Chemical Proteomic Assay for Optimizing Drug Binding to Target Proteins” (MARQUETTE UNIVERSITY, priority 2009, published 2010)
